# Laboratory results from publication PMC11597353, “Synthesis of Novel Gefitinib-Conjugated 1,2,3-Triazole Derivatives and Their Effect of Inducing DNA Damage and Apoptosis in Tumor Cells” (Molecules, 2024).
# Assays:
# Type in all cases: cell-based, human
# [1] = tested on: p-H2AX in HepG2 cells; assay: DNA damage immunofluorescence and Western blot of p-H2AX; conditions: HepG2, 2, 4, 8 μM
# Description: Previous studies have reported that the phosphorylation of H2AX is a highly specific and sensitive molecular marker of DNA damage. To determine whether the inhibitory effects of compounds 11m and 11t on HepG2 cells are related to p-H2AX, we conducted immunofluorescence and Western blot analyses.
# HepG2 cells were seeded in laser confocal culture dishes (Nest, Wuxi, China) and incubated for 24 h, followed by treatment with 11m or 11t (2, 4, and 8 μM) for 24 h. After washing with PBS, cells were fixed with 4% paraformaldehyde at room temperature for 20 min. After washing with PBS, cells were permeabilized with 0.5% Triton X-100 for 20 min, followed by further washing with PBS. Cells were then blocked with goat serum at room temperature for 1 h, followed by incubation with p-H2AX (Cell Signaling Technology, Beverly, MA, USA) at a dilution of 1:500 overnight at 4 °C. After washing with PBS, cells were incubated with Cy3 (Proteintech, Wuhan, China) at a dilution of 1:100 in the dark at room temperature for 1 h. After washing with PBS, nuclei were stained with DAPI for 5 min. Cells were observed and imaged using an oil immersion lens under a laser confocal microscope (Nikon, Tokyo, Japan).
# HepG2 cells were seeded in 6-well plates and incubated for 24 h. […] Protein supernatants were mixed with loading buffer, denatured at 100 °C for 10 min, and quantified using BCA. […]
# [2] = tested on: HepG2 cells; assay: Annexin V-FITC/PI dual staining, flow cytometry apoptosis; conditions: 48 h
# Description: HepG2 cells were treated with DMSO or different concentrations of 11m and 11t for 48 h, followed by staining with Annexin-V and PI. The proportion of apoptotic cells was then analyzed using flow cytometry. […] Compared to the control group, the proportion of apoptotic cells increased gradually with increasing drug concentrations (p < 0.01, p < 0.05).
# HepG2 cells were seeded in 6-well plates at a density of […] and incubated for 24 h. They were then treated with 11m or 11t at concentrations of 2, 4, and 8 μM for 48 h. After digestion with trypsin without EDTA and washing with PBS, the cells were resuspended in 500 µL Binding Buffer at a concentration of 1 × 10^6 cells/mL. Then, 5 μL of Annexin V-FITC was added, mixed well, followed by the addition of 5 μL Propidium Iodide, mixed gently, and incubated in the dark at room temperature (25 °C) for 10 min. Detection was performed using a flow cytometer (BD Accuri™ C6 Plus) within 1 h.
# [3] = tested on: HepG2 cells; assay: Colony formation assay; conditions: 7 days
# Description: A colony formation assay is used to assess the ability of adherent cells to proliferate and form cell colonies on a plate, making it one of the key methods for evaluating cell proliferation. We also employed the colony formation assay to further confirm that compounds 11m and 11t can inhibit liver cancer cell proliferation (as shown in Figure 5). HepG2 cells were treated with low, medium, and high concentrations (2, 4, and 8 μmol/L) of the compounds for 7 days, followed by counting the number of cell colonies and analyzing the proliferation inhibition rate.
# HepG2 cells were seeded in 6-well plates at a density of 500 cells per well and incubated at 37 °C for 24 h, followed by treatment with 11m or 11t (2, 4, and 8 μM) for 24 h. The medium was then replaced with fresh culture medium, and after 7 days, the culture medium was removed and washed with PBS. Cells were fixed with 4% paraformaldehyde at room temperature for 20 min, stained with 0.1% crystal violet staining solution at room temperature for 20 min, and excess staining solution was washed off with distilled water. The plates were dried at 37 °C, photographed, and the number of colonies was counted using ImageJ.
# [4] = tested on: HepG2 cells; assay: DAPI staining for apoptotic morphology; conditions: HepG2, 2, 4, 8 μM, 48 h
# Description: To confirm the apoptosis-inducing activity of 11m and 11t in liver cancer cells, HepG2 cells were treated with different concentrations of compounds 11m and 11t for 48 h, followed by DAPI staining.
# HepG2 cells were seeded in 48-well plates and incubated for 24 h, then treated with different concentrations of 11m and 11t (2, 4, and 8 μM) for 48 h. After removing the original culture medium, the cells were washed with PBS and fixed with 4% paraformaldehyde at room temperature for 20 min. After washing with PBS, the cells were stained with DAPI (10 μg/mL) in the dark at room temperature for 5 min. After washing with PBS, apoptotic morphological changes were observed using a fluorescence microscope.
# [5] = tested on: HepG2 cells; assay: Scratch wound healing assay
# Description: To investigate the effect of the compounds on the migration of wild-type liver cancer cells, we conducted wound healing and Transwell assays to assess changes in the migration ability of HepG2 cells after treatment with compounds 11m and 11t. […] The Transwell migration assay, another important method for evaluating cell migration, involves seeding tumor cells in a chamber and assessing their migration ability by counting the number of cells that pass through the membrane. […] These findings indicate that compounds 11m and 11t can inhibit the migration ability of liver cancer cells in a concentration-dependent manner.
# HepG2 cells were seeded in 24-well plates, and when the cell density reached 95%, a vertical scratch was made along the edge of the plate cover using a yellow pipette tip. After washing with PBS, images of the scratches were taken at 0 h under a microscope, and each well was treated with 11m or 11t (0, 2, 4, and 8 μM) and incubated in a cell culture incubator. Images were taken at 12, 24, and 48 h after the scratch was made.
SMILES,expression of p-H2AX [1],total proportion of apoptotic HepG2 cells ([2]; 2 μM),total proportion of apoptotic HepG2 cells ([2]; 4 μM),total proportion of apoptotic HepG2 cells ([2]; 8 μM),colony formation in HepG2 cells ([3]; 4 μM),colony formation in HepG2 cells ([3]; 8 μM),apoptotic morphological changes (DAPI staining) [4],"wound-healing rate ([5]; HepG2, 2 μM, 12 h)","wound-healing rate ([5]; HepG2, 2 μM, 24 h)","wound-healing rate ([5]; HepG2, 2 μM, 48 h)","wound-healing rate ([5]; HepG2, 4 μM, 12 h)","wound-healing rate ([5]; HepG2, 4 μM, 24 h)","wound-healing rate ([5]; HepG2, 4 μM, 48 h)","wound-healing rate ([5]; HepG2, 8 μM, 12 h)","wound-healing rate ([5]; HepG2, 8 μM, 24 h)","wound-healing rate ([5]; HepG2, 8 μM, 48 h)"
"COc1cc2ncnc(Nc3cccc(-c4cn(Cc5cccc(I)c5)nn4)c3)c2cc1OCCCN1CCOCC1 [Compound 11t, N-(3-(1-(3-iodobenzyl)-1H-1,2,3-triazol-4-yl)phenyl)-7-methoxy-6-(3-morpholinopropoxy)quinazolin-4-amine]",increased,13.44%,33.57%,62.82%,began to noticeably inhibit colony formation,almost completely suppressed,typical apoptotic characteristics,11.03%,16.02%,35.36%,14.18%,25.67%,33.66%,9.87%,13.26%,19.54%
"COc1cc2ncnc(Nc3cccc(-c4cn(Cc5ccc(I)cc5)nn4)c3)c2cc1OCCCN1CCOCC1 [Compound 11m, N-(3-(1-(4-iodobenzyl)-1H-1,2,3-triazol-4-yl)phenyl)-7-methoxy-6-(3-morpholinopropoxy)quinazolin-4-amine]",increased,1.59%,9.46%,31.66%,began to noticeably inhibit colony formation,almost completely suppressed,typical apoptotic characteristics,14.32%,20.33%,41.13%,13.89%,20.60%,36.35%,8.96%,16.39%,18.48%
